From patent publication EP0581464A1, “Ester derivatives and pharmaceutical compositions containing them” (ZENECA LIMITED, priority 1992, dated 1994)

Target: T1, 5-LO (Homo sapiens, UniProt P09917)
T1 construct: incubating a test compound with heparinised human blood, prior to challenge with the calcium ionophore A23187; endogenous in cells; host or cells: human whole blood (blood cells)
T1 sequence (P09917 1-674): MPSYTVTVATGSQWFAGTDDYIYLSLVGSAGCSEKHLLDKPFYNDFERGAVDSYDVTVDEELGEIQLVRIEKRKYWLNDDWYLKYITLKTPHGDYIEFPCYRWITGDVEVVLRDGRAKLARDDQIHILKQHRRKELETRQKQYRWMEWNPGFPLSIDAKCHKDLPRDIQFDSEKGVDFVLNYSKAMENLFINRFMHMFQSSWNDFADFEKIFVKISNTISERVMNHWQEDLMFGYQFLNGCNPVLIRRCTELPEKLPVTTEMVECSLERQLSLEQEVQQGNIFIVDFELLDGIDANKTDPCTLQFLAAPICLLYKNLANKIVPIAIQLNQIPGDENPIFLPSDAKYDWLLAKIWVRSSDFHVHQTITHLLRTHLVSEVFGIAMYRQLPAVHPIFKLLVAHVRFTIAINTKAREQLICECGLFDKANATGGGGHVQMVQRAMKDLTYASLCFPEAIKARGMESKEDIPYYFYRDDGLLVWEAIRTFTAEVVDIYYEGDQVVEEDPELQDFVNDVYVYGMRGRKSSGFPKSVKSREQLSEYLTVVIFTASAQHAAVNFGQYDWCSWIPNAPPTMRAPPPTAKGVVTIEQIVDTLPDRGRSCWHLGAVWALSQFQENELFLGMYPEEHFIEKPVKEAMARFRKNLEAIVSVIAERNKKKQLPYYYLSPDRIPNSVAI
Test: Test a): in vitro heparinised human blood challenged with calcium ionophore A23187, radioimmunoassay of LTB4
Assay type: cell-based
Conditions: A23187 challenge, read-out: IC50 against LTB4 in test (a)
Excerpt: As stated previously, the compounds of the formula I are inhibitors of the enzyme 5-LO. […] J. Pharmacol. 1985, 84, 34P) which involve the use of a protein-LTB4 conjugate produced using the procedure of Young et alia (Prostaglandins, 1983, 26(4), 605-613). The effects of a test compound on the enzyme cyclooxygenase (which is involved in the alternative metabolic pathway for arachidonic acid and gives rise to prostaglandins, thromboxanes and related metabolites) may be measured at the same time using the specific radioimmunoassay for thromboxane B2(TxB2) described by Carey and Forder (see above). This test provides an indication of the effects of a test compound against 5-LO and also cyclooxygenase in the presence of blood cells and proteins. It permits the selectivity of the inhibitory effect on 5-LO or cyclooxygenase to be assessed. • b) An ex vivo assay system, which is a variation of test a) above, involving administration to a group of rats of a test compound (usually orally as the suspension produced when a solution of the test compound in dimethylsulphoxide is added to carboxymethylcellulose), blood collection, heparinisation, challenge with A23187 and radioimmunoassay of LTB4 and TxB2. […]

Structure (SMILES)	IC50 [µM]
COC1(/C(N)=C/C(=O)OCc2ccc3ccccc3c2)CCOCC1 [Example 1, naphth-2-ylmethyl (Z)-3-amino-3-(4-methoxytetrahydropyran-4-yi)prop-2-enoate]	0.07
CO/N=C(\C)c1ccc(COC(=O)/C=C(\N)C2(OC)CCOCC2)cc1 [Example 2, 4-[(E)-1-methoxyiminoethyl]benzyl (Z)-3-amino-3-(4-methoxytetrahydropyran-4-yl)prop-2-enoate]	9.36
